{"source": "paper PMC5650409", "about": "(Oncotarget, 2017)", "key": {"[1]": {"system": "T3M4 tumor-bearing nude mice", "experiment": "In vivo biodistribution", "details": "n = 5", "protocol": "All animal experiments were performed in adherence with the Peking Union Medical College Hospital (PUMCH) guidelines for the use of laboratory animals and were approved by PUMCH Clinical Center Animal Care and Use Committee. […] Zhang from the Department of General Surgery, Peking Union Medical College Hospital) and SK-BR-3 breast cancer cells (kindly supplied by Prof. Wei Ge from Department of Immunology, Institute of Basic Medical Sciences), into the right shoulder of female athymic nude mice (Laboratory Animal Center of PUMCH). Tumor sizes were monitored with a vernier caliper. […] After 72 h, those tumor-bearing mice with a visible mass in left thigh muscle, were selected and used as models with aseptic inflammation. […] At 5 min, 30 min, 60 min and 120 min after injection, mice were sacrificed by humane euthanasia - cervical dislocation. Blood was obtained through the eyeball, and tissues and organs of interests (brain, heart, lung, liver, pancreas, kidney, spleen, intestine, muscle, stomach, bone and tumor) were then weighed and counted. All measurements were background-subtracted and decay-corrected to the time of killing and then averaged. Radioactivity values were calculated and presented as the percentage injected dose per gram (%ID/g) of tissue."}, "[2]": {"experiment": "Octanol-water partition coefficient determination", "type": "physicochemical", "details": "n-octanol / PBS pH 7.4", "protocol": "After vortexing for 10 min, the tube was centrifuged (8000 rpm, 3 min) for layer separation. An aliquot of the aqueous and n-octanol layers was collected and measured by a γ-counter."}, "[3]": {"experiment": "In vitro stability in fetal bovine serum", "type": "in vitro ADME", "details": "37 °C, 120 min"}, "[4]": {"protocol": "Urine and blood samples were collected at 15 min post-injection and blood was centrifuged (8000 rpm, 10 min) to separate out the plasma. Urine and plasma samples were analyzed by radio-TLC, as above."}, "[5]": {"system": "T3M4 tumor-bearing mice", "experiment": "Small-animal PET imaging of T3M4 xenografts (with aseptic inflammation, with and without β-D-lactose blocking)", "type": "in vivo", "details": "for tumor uptake (PET ROI-derived): T3M4 tumor, 60 min post-injection", "protocol": "(§1) All animal experiments were performed in adherence with the Peking Union Medical College Hospital (PUMCH) guidelines for the use of laboratory animals and were approved by PUMCH Clinical Center Animal Care and Use Committee. The pancreatic cancer tumor-bearing models were generated by subcutaneous injection of 5 × 10^6 human T3M4 pancreatic cancer cells (kindly supplied by Prof. Taiping Zhang from the Department of General Surgery, Peking Union Medical College Hospital) and SK-BR-3 breast cancer cells (kindly supplied by Prof. Wei Ge from Department of Immunology, Institute of Basic Medical Sciences), into the right shoulder of female athymic nude mice (Laboratory Animal Center of PUMCH). Tumor sizes were monitored with a vernier caliper. When the tumor reached approximately 3-5 mm in diameter, T3M4 tumor-bearing mice were intramuscularly injected with 0.2 mL turpentine into the left hind leg muscle. After 72 h, those tumor-bearing mice with a visible mass in left thigh muscle, were selected and used as models with aseptic inflammation.\n(§2) In vivo PET imaging was performed using a small-animal PET scanner Inveon (Siemens Medical systems, USA). […] Mice were anesthetized with isoflurane and placed on a heated pad (to provide the animal with warmth throughout the scanning). PET images were acquired at 30, 60, 90 and 120 min post-injection. After the acquisition, region of interests (ROIs), including tumor, muscle, brain and kidney were drawn over major organs on decay-corrected whole-body coronal images using Inveon Research Workplace 4.1 software. Radioactivity concentration of organs was obtained from the mean pixel values within the multiple ROI volume, and converted into MBq/mL using a conversion factor. Assuming the density of tissue was 1 g/cm^3, the ROIs were converted to MBq/g and then divided by the administered activity, to obtain an imaging ROI-derived %ID/g."}, "[6]": {"system": "SK-BR-3 tumor-bearing mice", "experiment": "Small-animal PET imaging of SK-BR-3 xenografts", "type": "in vivo", "protocol": "as §1, §2"}, "[7]": {"details": "15 min after intravenous injection, radio-TLC"}, "[8]": {"details": "SK-BR-3 xenografts, 60 min post-injection"}}, "data": [{"compound": "OC[C@H]1O[C@@H](O[C@H]2[C@H](O)[C@@H](O)[C@H](OCC[18F])O[C@@H]2CO)[C@H](O)[C@@H](O)[C@H]1O", "note": "[^18F-FEL, 1'-^18F-fluoroethyl-β-D-lactose]", "values": [{"measurement": "Biodistribution, Blood", "setting": "[1]; 5 min after injection", "value": "9.58 ± 0.51", "unit": "%ID/g"}, {"measurement": "Biodistribution, Bone", "setting": "[1]; 5 min after injection", "value": "1.34 ± 0.23", "unit": "%ID/g"}, {"measurement": "Biodistribution, Brain", "setting": "[1]; 5 min after injection", "value": "0.67 ± 0.23", "unit": "%ID/g"}, {"measurement": "Biodistribution, Heart", "setting": "[1]; 5 min after injection", "value": "3.81 ± 0.62", "unit": "%ID/g"}, {"measurement": "Biodistribution, Intestine", "setting": "[1]; 5 min after injection", "value": "2.57 ± 0.30", "unit": "%ID/g"}, {"measurement": "Biodistribution, Kidney", "setting": "[1]; 5 min after injection", "value": "19.4 ± 4.76", "unit": "%ID/g"}, {"measurement": "Biodistribution, Liver", "setting": "[1]; 5 min after injection", "value": "2.12 ± 0.21", "unit": "%ID/g"}, {"measurement": "Biodistribution, Lung", "setting": "[1]; 5 min after injection", "value": "2.29 ± 0.35", "unit": "%ID/g"}, {"measurement": "Biodistribution, Muscle", "setting": "[1]; 5 min after injection", "value": "2.50 ± 0.15", "unit": "%ID/g"}, {"measurement": "Biodistribution, Pancreas", "setting": "[1]; 5 min after injection", "value": "2.90 ± 1.28", "unit": "%ID/g"}, {"measurement": "Biodistribution, Spleen", "setting": "[1]; 5 min after injection", "value": "1.89 ± 0.62", "unit": "%ID/g"}, {"measurement": "Biodistribution, Stomach", "setting": "[1]; 5 min after injection", "value": "3.60 ± 0.64", "unit": "%ID/g"}, {"measurement": "Biodistribution, Tumor", "setting": "[1]; 5 min after injection", "value": "6.67 ± 0.42", "unit": "%ID/g"}, {"measurement": "Biodistribution, Blood", "setting": "[1]; 30 min after injection", "value": "2.31 ± 0.67", "unit": "%ID/g"}, {"measurement": "Biodistribution, Bone", "setting": "[1]; 30 min after injection", "value": "0.60 ± 0.26", "unit": "%ID/g"}, {"measurement": "Biodistribution, Brain", "setting": "[1]; 30 min after injection", "value": "0.16 ± 0.04", "unit": "%ID/g"}, {"measurement": "Biodistribution, Heart", "setting": "[1]; 30 min after injection", "value": "0.88 ± 0.25", "unit": "%ID/g"}, {"measurement": "Biodistribution, Intestine", "setting": "[1]; 30 min after injection", "value": "0.94 ± 0.16", "unit": "%ID/g"}, {"measurement": "Biodistribution, Kidney", "setting": "[1]; 30 min after injection", "value": "9.59 ± 1.80", "unit": "%ID/g"}, {"measurement": "Biodistribution, Liver", "setting": "[1]; 30 min after injection", "value": "1.36 ± 0.07", "unit": "%ID/g"}, {"measurement": "Biodistribution, Lung", "setting": "[1]; 30 min after injection", "value": "1.91 ± 0.42", "unit": "%ID/g"}, {"measurement": "Biodistribution, Muscle", "setting": "[1]; 30 min after injection", "value": "0.91 ± 0.12", "unit": "%ID/g"}, {"measurement": "Biodistribution, Pancreas", "setting": "[1]; 30 min after injection", "value": "0.69 ± 0.33", "unit": "%ID/g"}, {"measurement": "Biodistribution, Spleen", "setting": "[1]; 30 min after injection", "value": "0.77 ± 0.19", "unit": "%ID/g"}, {"measurement": "Biodistribution, Stomach", "setting": "[1]; 30 min after injection", "value": "1.03 ± 0.33", "unit": "%ID/g"}, {"measurement": "Biodistribution, Tumor", "setting": "[1]; 30 min after injection", "value": "3.24 ± 0.11", "unit": "%ID/g"}, {"measurement": "Biodistribution, Blood", "setting": "[1]; 60 min after injection", "value": "0.87 ± 0.31", "unit": "%ID/g"}, {"measurement": "Biodistribution, Bone", "setting": "[1]; 60 min after injection", "value": "0.31 ± 0.02", "unit": "%ID/g"}, {"measurement": "Biodistribution, Brain", "setting": "[1]; 60 min after injection", "value": "0.10 ± 0.02", "unit": "%ID/g"}, {"measurement": "Biodistribution, Heart", "setting": "[1]; 60 min after injection", "value": "0.38 ± 0.10", "unit": "%ID/g"}, {"measurement": "Biodistribution, Intestine", "setting": "[1]; 60 min after injection", "value": "0.56 ± 0.35", "unit": "%ID/g"}, {"measurement": "Biodistribution, Kidney", "setting": "[1]; 60 min after injection", "value": "4.35 ± 1.53", "unit": "%ID/g"}, {"measurement": "Biodistribution, Liver", "setting": "[1]; 60 min after injection", "value": "0.83 ± 0.23", "unit": "%ID/g"}, {"measurement": "Biodistribution, Lung", "setting": "[1]; 60 min after injection", "value": "0.71 ± 0.37", "unit": "%ID/g"}, {"measurement": "Biodistribution, Muscle", "setting": "[1]; 60 min after injection", "value": "0.77 ± 0.30", "unit": "%ID/g"}, {"measurement": "Biodistribution, Pancreas", "setting": "[1]; 60 min after injection", "value": "0.63 ± 0.34", "unit": "%ID/g"}, {"measurement": "Biodistribution, Spleen", "setting": "[1]; 60 min after injection", "value": "0.56 ± 0.30", "unit": "%ID/g"}, {"measurement": "Biodistribution, Stomach", "setting": "[1]; 60 min after injection", "value": "0.82 ± 0.61", "unit": "%ID/g"}, {"measurement": "Biodistribution, Tumor", "setting": "[1]; 60 min after injection", "value": "1.03 ± 0.09", "unit": "%ID/g"}, {"measurement": "Biodistribution, Blood", "setting": "[1]; 120 min after injection", "value": "0.29 ± 0.12", "unit": "%ID/g"}, {"measurement": "Biodistribution, Bone", "setting": "[1]; 120 min after injection", "value": "0.12 ± 0.02", "unit": "%ID/g"}, {"measurement": "Biodistribution, Brain", "setting": "[1]; 120 min after injection", "value": "0.06 ± 0.03", "unit": "%ID/g"}, {"measurement": "Biodistribution, Heart", "setting": "[1]; 120 min after injection", "value": "0.20 ± 0.04", "unit": "%ID/g"}, {"measurement": "Biodistribution, Intestine", "setting": "[1]; 120 min after injection", "value": "0.20 ± 0.07", "unit": "%ID/g"}, {"measurement": "Biodistribution, Kidney", "setting": "[1]; 120 min after injection", "value": "2.08 ± 0.74", "unit": "%ID/g"}, {"measurement": "Biodistribution, Liver", "setting": "[1]; 120 min after injection", "value": "0.59 ± 0.09", "unit": "%ID/g"}, {"measurement": "Biodistribution, Lung", "setting": "[1]; 120 min after injection", "value": "0.38 ± 0.11", "unit": "%ID/g"}, {"measurement": "Biodistribution, Muscle", "setting": "[1]; 120 min after injection", "value": "0.15 ± 0.07", "unit": "%ID/g"}, {"measurement": "Biodistribution, Pancreas", "setting": "[1]; 120 min after injection", "value": "0.29 ± 0.07", "unit": "%ID/g"}, {"measurement": "Biodistribution, Spleen", "setting": "[1]; 120 min after injection", "value": "0.30 ± 0.17", "unit": "%ID/g"}, {"measurement": "Biodistribution, Stomach", "setting": "[1]; 120 min after injection", "value": "0.24 ± 0.17", "unit": "%ID/g"}, {"measurement": "Biodistribution, Tumor", "setting": "[1]; 120 min after injection", "value": "0.65 ± 0.12", "unit": "%ID/g"}, {"measurement": "log P", "setting": "[2]", "value": "−2.62 ± 0.12"}, {"measurement": "intact ^18F-FEL in fetal bovine serum", "setting": "[3]", "value": "greater than 95%"}, {"measurement": "percentage of intact probe in plasma", "setting": "[4]; [7]", "value": "no less than 94%"}, {"measurement": "percentage of intact probe in urine", "setting": "[4]; [7]", "value": "no less than 94%"}, {"measurement": "dehalogenation in vivo", "setting": "[4]; plasma and urine 15 min after intravenous injection, supported by low bone uptake", "value": "Almost no dehalogenation was detected"}, {"measurement": "accumulation in inflammatory tissue", "setting": "[5]; T3M4-inflammation mice, 60 min after injection, PET", "value": "non-accumulation in inflammatory tissue"}, {"measurement": "tumor uptake (PET ROI-derived)", "setting": "[5]; co-injection of β-D-lactose (15 mg/kg)", "value": "2.36 ± 0.11", "unit": "%ID/g"}, {"measurement": "tumor uptake (PET ROI-derived)", "setting": "[5]; no blocking", "value": "10.7 ± 1.01", "unit": "%ID/g"}, {"measurement": "reduction of specific tumor accumulation in PET competition assay", "setting": "[5]; co-injection of β-D-lactose", "value": "approximately 80%"}, {"measurement": "radioactivity uptake in SK-BR-3 tumor", "setting": "[6]; SK-BR-3 breast tumor-bearing mice with no HIP/PAP expression, PET", "value": "low"}, {"measurement": "uptake ratio of tumor-to-blood", "setting": "[6]; [8]", "value": "0.37 ± 0.01"}, {"measurement": "uptake ratio of tumor-to-liver", "setting": "[6]; [8]", "value": "0.54 ± 0.01"}, {"measurement": "uptake ratio of tumor-to-muscle", "setting": "[6]; [8]", "value": "1.37 ± 0.05"}]}]}
